The values below come from US10780071B2, “Compositions, methods and/or devices for prevention and/or treatment of dry eye disorders” (Brien Holden Vision Institute Limited, priority 2012, dated 2020).

One assay relates to S. epidermidis 025. The experiment in a line: Bacterial growth, optical density of cultures at 660 nm. The conditions noted are these: read-out: Inhibition of Growth. The assay is classed as cell-based. Here is the method:
(§1) The bacterial strains S. aureus 020 & 134, and S. epidermidis 024 & 025 were grown at 37° C. in TSB treated with 0, 6.25 or 12.5 μg/ml of glycerol monolaurate or lauric acid as well as in TSB extraction of glycerol monolaurate ointment prior to assay of bacterial growth and lipase activity. After incubation for 24 h, bacterial growth was determined by measuring the optical density of cultures using a spectrophotometer at a wavelength of 660 nm. Lipase activity by test bacterial strains under various treatments were assessed by examining the lipase activity in bacterial culture supernatants with a QuantiChrom™ Lipase Assay Kit.

The subject of a further assay is S. epidermidis 024. The assay is described as above. The assay is classed as cell-based. The following applies: read-out: Inhibition of Growth. The method, then: as §1
For assay [1], the system named is lipase. The experiment in a line: Lipase activity in culture supernatants, summary over the test strains. It counts as cell-based, S. aureus 020 & 134, and S. epidermidis 024 & 025. The method, then: The bacterial strains S. aureus 020 & 134, […] of glycerol monolaurate ointment prior to assay of bacterial growth and lipase activity. After incubation for 24 h, bacterial growth was determined by measuring the optical density of cultures using a spectrophotometer at a wavelength of 660 nm. Lipase activity by test bacterial strains under various treatments were assessed by examining the lipase activity in bacterial culture supernatants with a QuantiChrom™ Lipase Assay Kit.

The test system of assay [2] is S. aureus 020 & 134, and S. epidermidis 024 & 025. The experiment in a line: Bacterial growth, summary over the test strains. It counts as cell-based. The following applies: concentrations of Tables 1-4; 24 h. The method, then: as §1
For assay [3], the system named is lipase. The experiment in a line: Lipase activity in bacterial culture supernatants (QuantiChrom Lipase Assay Kit). The assay is classed as cell-based. The conditions noted are these: TSB, 37° C., 24 h. Here is the method: as §1
In another assay the test system is S. aureus 134. The experiment in a line: Bacterial growth, optical density of cultures at 660 nm. It counts as cell-based. The conditions noted are these: Staphylococcus aureus, TSB, 37° C., 24 h. The method, then:
as §1

The test system of a further assay is S. aureus 020. The description is as above. It counts as cell-based. The following applies: Staphylococcus aureus, 020, 24 h, read-out: Inhibition of Growth. The method, then: as §1
In assay [4] the test system is lipase. Description: Lipase activity in bacterial culture supernatants (QuantiChrom Lipase Assay Kit). It counts as cell-based. The conditions noted are these: S. aureus 020, TSB, 37° C., 24 h. Here is the method: The bacterial strains S. aureus 020 & 134, […] in TSB extraction of glycerol monolaurate ointment prior to assay of bacterial growth and lipase activity. After incubation for 24 h, bacterial growth was determined by measuring the optical density of cultures using a spectrophotometer at a wavelength of 660 nm. Lipase activity by test bacterial strains under various treatments were assessed by examining the lipase activity in bacterial culture supernatants with a QuantiChrom™ Lipase Assay Kit.

Assay [5] has as its system lipase. The description is as above. The following applies: S. aureus 134, TSB, 37° C., 24 h. It counts as cell-based. Here is the method: The bacterial strains S. aureus 020 & 134, and S. […] in TSB extraction of glycerol monolaurate ointment prior to assay of bacterial growth and lipase activity. After incubation for 24 h, bacterial growth was determined by measuring the optical density of cultures using a spectrophotometer at a wavelength of 660 nm. Lipase activity by test bacterial strains under various treatments were assessed by examining the lipase activity in bacterial culture supernatants with a QuantiChrom™ Lipase Assay Kit.

The mark [6] stands for this setting: glycerol monolaurate 12.5 μg/ml.
[7] abbreviates: glycerol monolaurate 17.5 μg/ml.
[8] abbreviates: Staphylococcus epidermidis, 025, 24 h.
The mark [9] stands for this setting: Staphylococcus epidermidis, 024, 24 h.

Where two headings read alike, the source gives them in different places.

In general, inhibition refers to the relative decrease from the control value, in per cent.

As to `CCCCCCCCCCCC(=O)O` [Lauric acid], the inhibition at 6.25 µg/mL with S. epidermidis 025 (Staphylococcus epidermidis, S. epidermidis 025, lauric acid 6.25 μg/ml, TSB, 37° C., 24 h) was 0%; in the assay on S. epidermidis 024 (Staphylococcus epidermidis, S. epidermidis 024, lauric acid 6.25 μg/ml, TSB, 37° C., 24 h), 0%. Moreover, the inhibition at 12.5 µg/mL worked out at 0% in the assay on S. epidermidis 025 (Staphylococcus epidermidis, S. epidermidis 025, lauric acid 12.5 μg/ml, TSB, 37° C., 24 h) and 0% in the assay with S. epidermidis 024 (Staphylococcus epidermidis, S. epidermidis 024, lauric acid 12.5 μg/ml, TSB, 37° C., 24 h). Also, the “inhibits lipase activity by approximately (range over Table 2)” value in the assay on lipase [1] (S. epidermidis 024 and 025, 6.25 and 12.5 μg/ml (Table 2)) is 46-72%. Further, the “effect on growth of the bacterial strains at the concentrations used” value in [2] is recorded as “do not substantially inhibit growth”. Also, the “Inhibition of Lipase activity” value is reported as 46% in the assay on lipase [3] (S. epidermidis 024, lauric acid 6.25 μg/ml); 70% in the assay on lipase [3] (S. epidermidis 024, lauric acid 12.5 μg/ml); 48% in the assay with lipase [3] (S. epidermidis 025, lauric acid 6.25 μg/ml); 72% in the assay with lipase [3] (S. epidermidis 025, lauric acid 12.5 μg/ml).

For `CCCCCCCCCCCC(=O)OCC(O)CO` (stereo not shown) [Glycerol monolaurate], the inhibition at 10 µg/mL with S. aureus 134 (glycerol monolaurate 10 μg/ml) was determined as 0%; in the assay on S. aureus 020, 4%. Also, the inhibition at 12.5 µg/mL with S. aureus 134 (setting [6]) was 0%; with S. epidermidis 025 (setting [8]), 0%; in the assay with S. aureus 020, 4%; in the assay with S. epidermidis 024 (setting [9]), 0%. Further, the values for the inhibition at 15 µg/mL with S. aureus 134 (glycerol monolaurate 15 μg/ml) and with S. aureus 020 were 1% and 2%, respectively. The inhibition at 17.5 µg/mL with S. aureus 134 (setting [7]) and in the assay on S. aureus 020 was 0% each time. The inhibition at 6.25 µg/mL with S. epidermidis 025 (setting [8]) and with S. epidermidis 024 (setting [9]) was 0% throughout. Also, in the assay with S. aureus 020, the inhibition at 5 µg/mL is 1%. In addition, the inhibition at 7.5 µg/mL in the assay on S. aureus 020 is 0%. In the assay with lipase [1] (all strains and concentrations of Table 1 (5-17.5 μg/ml)), the “inhibits lipase activity by approximately (range over Table 1)” value is listed as 16-88%. The “Inhibition of Lipase activity” value in the assay with lipase [4] (glycerol monolaurate 5 μg/ml) is 16%; in the assay with lipase [4] (glycerol monolaurate 7.5 μg/ml), 29%; in the assay with lipase [4] (glycerol monolaurate 10 μg/ml) it was 50%; in the assay on lipase [4] (setting [6]), 63%; in the assay on lipase [4] (glycerol monolaurate 15 μg/ml), 73%; in the assay on lipase [4] (setting [7]), 88%. Also, the “Inhibition of Lipase activity” value in the assay on lipase [5] (glycerol monolaurate 10 μg/ml) is listed as 25%; with lipase [5] (setting [6]) it was 38%; in the assay with lipase [5] (glycerol monolaurate 15 μg/ml), 49%; in the assay on lipase [5] (setting [7]), 63%; in the assay with lipase [3] (S. epidermidis 024, glycerol monolaurate 6.25 μg/ml) it was 46%; in the assay on lipase [3] (S. epidermidis 024, glycerol monolaurate 12.5 μg/ml), 70%. Also, the “Inhibition of Lipase activity” value is 48% in the assay on lipase [3] (S. epidermidis 025, glycerol monolaurate 6.25 μg/ml) and 72% with lipase [3] (S. epidermidis 025, glycerol monolaurate 12.5 μg/ml). Moreover, the “effect on growth of the bacterial strains at the concentrations used” value in assay [2] is listed as “do not substantially inhibit growth”.
